# From PMC8958428 (Yeast (Chichester, England), 2021)
# Target: Hem1p (Hem1-His6) (Saccharomyces cerevisiae, UniProt P09950)
# Experiment: ALA synthase activity, control reactions
# Assay type: biochemical
# Conditions: concentration not told
# Chain of Hem1p (Hem1-His6) (P09950 10-548): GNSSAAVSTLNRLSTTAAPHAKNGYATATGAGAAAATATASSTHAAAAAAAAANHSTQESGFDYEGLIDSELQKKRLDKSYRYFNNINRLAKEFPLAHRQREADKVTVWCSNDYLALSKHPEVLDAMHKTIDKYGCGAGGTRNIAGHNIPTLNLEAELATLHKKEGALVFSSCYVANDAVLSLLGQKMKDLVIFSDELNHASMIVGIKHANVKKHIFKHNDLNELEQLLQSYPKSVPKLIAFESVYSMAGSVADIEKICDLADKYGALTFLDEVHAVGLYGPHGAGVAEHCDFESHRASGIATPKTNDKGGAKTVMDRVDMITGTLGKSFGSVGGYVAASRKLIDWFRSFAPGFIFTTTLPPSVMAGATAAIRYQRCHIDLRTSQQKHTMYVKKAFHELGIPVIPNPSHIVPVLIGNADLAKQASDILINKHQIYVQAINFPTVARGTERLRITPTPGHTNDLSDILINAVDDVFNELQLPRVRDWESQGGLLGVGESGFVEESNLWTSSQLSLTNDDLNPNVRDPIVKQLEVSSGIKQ
row,Structure (SMILES),"ALA synthase activity, control reactions"
1,N[C@@H](CO)C(=O)O [L-serine],Control reactions showed that Hem1p was inhibited by both L-serine and L-cysteine
2,N[C@@H](CS)C(=O)O [L-cysteine],Control reactions showed that Hem1p was inhibited by both L-serine and L-cysteine
